{"source": "patent US11919862B1", "about": "“6′-(4-bromophenyl)-2′-ethoxy-3,4′-bipyridine-3′-carbonitrile as an antioxidant” (KING FAISAL UNIVERSITY, priority 2023, dated 2024)", "assay": "DPPH (2,2-diphenyl-1-picrylhydrazyl) in vitro antioxidant / radical scavenging test", "assay_type": "biochemical", "settings": "517 nm; for Inhibition: radical scavenging inhibition of DPPH, vitamin C as reference", "description": "A new polyfunctionalized pyridine 6′-(4-bromophenyl)-2′-ethoxy-3,4′-bipyridine-3′-carbonitrile (4) was investigated for its antioxidant activity by 2,2-diphenyl-1-picrylhydrazyl (DPPH) in vitro tests that employ vitamin C as the positive control. The product 4 magnitude estimated the antioxidant potential to vanish the DPPH radical distinctive colors at 517 nm. […] The radical scavenging inhibition was calculated using the following equation: […]"}
{"molecule": "O=C1O[C@H]([C@@H](O)CO)C(O)=C1O", "note": "[vit c, vitamin C, reference compound]", "values": [{"measurement": "Inhibition", "result": 74, "unit": "%"}]}
{"molecule": "CCOc1nc(-c2ccc(Br)cc2)cc(-c2cccnc2)c1C#N", "note": "[Product 4, 6′-(4-bromophenyl)-2′-ethoxy-3,4′-bipyridine-3′-carbonitrile]", "values": [{"measurement": "antioxidant potential compared to vitamin C", "setting": "DPPH in vitro test", "result": "high potential as an antioxidant"}, {"measurement": "Inhibition", "result": 48, "unit": "%"}]}
